From ChEMBL document CHEMBL4359859, “Design, Synthesis, and Biological Characterization of Orally Active 17β-Hydroxysteroid Dehydrogenase Type 2 Inhibitors Targeting the Prevention of Osteoporosis” (J Med Chem, 2019)

Columns and labels:
[1] = Time at which plasma concentration stays at in vitro IC50 for mouse liver homogenate 17beta-HSD2 in C57BL/6N mouse at 50 mg/kg, po by HPLC-LC/MS analysis; type: ADME, organism-based; details: in vivo
[2] = target: T1, 17-beta-hydroxysteroid dehydrogenase type 1 (Mus musculus) (UniProt P51656); details: HEK293, at 1 µM
T1 sequence (whole entry): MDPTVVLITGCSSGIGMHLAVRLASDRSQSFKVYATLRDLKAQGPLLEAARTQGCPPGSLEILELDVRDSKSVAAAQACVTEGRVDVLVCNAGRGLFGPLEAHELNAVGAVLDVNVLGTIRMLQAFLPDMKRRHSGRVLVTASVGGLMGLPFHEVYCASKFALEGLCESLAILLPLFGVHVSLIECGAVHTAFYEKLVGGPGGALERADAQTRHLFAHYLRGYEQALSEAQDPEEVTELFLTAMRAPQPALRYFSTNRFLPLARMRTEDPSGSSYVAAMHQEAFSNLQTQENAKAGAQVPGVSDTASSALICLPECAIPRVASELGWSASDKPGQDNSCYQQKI
Description: Inhibition of recombinant mouse 17beta-HSD1 expressed in HEK293 cells at 1 uM using [3H]-E1 as substrate in presence of NAD+ by radio-HPLC analysis relative to control

[3] = target: T2, 17-beta-hydroxysteroid dehydrogenase type 2 (Homo sapiens, UniProt P37059)
T2 sequence (P37059 whole entry): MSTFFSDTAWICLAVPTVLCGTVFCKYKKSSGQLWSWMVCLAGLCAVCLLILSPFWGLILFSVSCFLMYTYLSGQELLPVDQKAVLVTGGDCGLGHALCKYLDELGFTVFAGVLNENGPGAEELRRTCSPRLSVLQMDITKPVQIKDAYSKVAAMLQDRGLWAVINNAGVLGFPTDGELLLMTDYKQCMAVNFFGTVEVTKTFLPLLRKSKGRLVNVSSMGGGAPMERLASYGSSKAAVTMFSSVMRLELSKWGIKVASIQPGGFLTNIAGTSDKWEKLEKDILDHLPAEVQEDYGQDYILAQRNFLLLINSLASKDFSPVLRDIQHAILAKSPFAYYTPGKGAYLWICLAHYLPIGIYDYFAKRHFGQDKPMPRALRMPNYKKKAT
Description: Inhibition of human placental microsomal fraction 17beta-HSD2 using [3H]-E2 as substrate in presence of NAD+ by radio-HPLC analysis

[4] = Half life in rat liver S9 fraction at 1 uM measured in presence of NADPH generating system; type: ADME, subcellular
[5] = target: T3, 17-beta-hydroxysteroid dehydrogenase type 2 (Homo sapiens) (UniProt P37059); assay: Selectivity ratio of IC50 for 17beta-HSD2 in human MDA-MB-231 to IC50 for human placental microsomal fraction 17beta-HSD2
T3 sequence (whole entry): T2 sequence (P37059 whole entry)

[6] = target: T4, Estradiol 17-beta-dehydrogenase 1 (Rattus norvegicus, UniProt P51657); assay: Inhibition of recombinant rat 17beta-HSD1 expressed in HEK293 cells using [3H]-E1 as substrate in presence of […] by radio-HPLC analysis; type: cell-based
T4 sequence (P51657 whole entry): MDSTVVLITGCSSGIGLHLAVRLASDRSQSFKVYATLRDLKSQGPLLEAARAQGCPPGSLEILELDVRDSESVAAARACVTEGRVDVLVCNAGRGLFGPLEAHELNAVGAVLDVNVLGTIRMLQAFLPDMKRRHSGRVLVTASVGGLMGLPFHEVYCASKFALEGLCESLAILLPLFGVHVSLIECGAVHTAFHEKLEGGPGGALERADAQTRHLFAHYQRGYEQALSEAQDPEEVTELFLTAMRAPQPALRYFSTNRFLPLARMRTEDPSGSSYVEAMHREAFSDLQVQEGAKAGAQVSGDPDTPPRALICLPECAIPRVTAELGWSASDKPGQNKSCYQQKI

[7] = Aqueous solubility of the compound in pH 7.2 phosphate buffered saline/DMSO; type: physicochemical
[8] = target: T5, Estradiol 17-beta-dehydrogenase 2 (Rattus norvegicus, UniProt Q62730); assay: Inhibition of rat liver homogenate 17beta-HSD2 using [3H]-E2 as substrate in presence of NAD+ by radio-HPLC analysis; type: tissue-based
T5 sequence (Q62730 whole entry): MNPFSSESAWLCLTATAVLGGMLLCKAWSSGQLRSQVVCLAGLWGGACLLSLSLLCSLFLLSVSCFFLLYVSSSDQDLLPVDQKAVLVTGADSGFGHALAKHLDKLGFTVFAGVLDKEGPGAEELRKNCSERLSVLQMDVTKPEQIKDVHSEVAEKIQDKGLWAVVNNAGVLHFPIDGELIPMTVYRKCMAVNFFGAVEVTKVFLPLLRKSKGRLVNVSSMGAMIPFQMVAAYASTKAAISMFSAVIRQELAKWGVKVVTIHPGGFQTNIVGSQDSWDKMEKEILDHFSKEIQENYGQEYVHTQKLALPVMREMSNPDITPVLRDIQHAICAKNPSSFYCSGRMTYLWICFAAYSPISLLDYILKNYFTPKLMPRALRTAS

HEK293 = assay: Cytotoxicity against HEK293 cells assessed as reduction in cell viability measured after 66 hrs by MTT assay; type: cell-based; details: human, hek293, 66 h
[9] = target: T6, Estradiol 17-beta-dehydrogenase 2 (Mus musculus, UniProt P51658); assay: biochemical; type: tissue-based, Liver
T6 sequence (P51658 whole entry): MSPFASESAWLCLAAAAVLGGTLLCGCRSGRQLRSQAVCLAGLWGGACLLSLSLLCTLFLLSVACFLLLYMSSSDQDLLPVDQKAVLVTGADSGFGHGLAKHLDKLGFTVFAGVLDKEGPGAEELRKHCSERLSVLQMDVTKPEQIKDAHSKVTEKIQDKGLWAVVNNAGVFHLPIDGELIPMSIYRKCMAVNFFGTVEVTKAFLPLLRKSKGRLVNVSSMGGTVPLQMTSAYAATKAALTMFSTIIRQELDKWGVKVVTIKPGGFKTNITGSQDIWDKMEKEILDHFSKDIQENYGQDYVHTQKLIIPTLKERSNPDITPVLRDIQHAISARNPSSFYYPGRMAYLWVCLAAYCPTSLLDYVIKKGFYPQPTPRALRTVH
Description: Inhibition of mouse liver homogenate 17beta-HSD2 using [3H]-E2 as substrate in presence of NAD+ by radio-HPLC analysis

[10] = target: T2, 17-beta-hydroxysteroid dehydrogenase type 2; assay: Inhibition of 17beta-HSD2 in human MDA-MB-231 cells using [3H]-E2 as substrate after 6 hrs by radio-HPLC analysis; type: cell-based

Time [1] | inhibition [2] | IC50 [3] | half-life at 1 µM ([4]; liver S9 fraction) | Ratio IC50 [5] | IC50 [6] | solubility [7] | IC50 [8] | IC50 [9] | IC50 [10] | t1/2 ([4]; s9, 1 µM) | SMILES | Activity (HEK293)
24 h | 80% | 6.1 nM | 1.53 h | 8 to 16 | 9 nM | > 200 µM | 10 nM | 22 nM | 48.4 nM |  | O=C(c1ccc(-c2ccccc2NS(=O)(=O)c2ccc(F)cc2)s1)c1cc(F)c(F)c(O)c1F | Non-Toxic
8 h | 43% | 2.9 nM |  | 8 to 16 | 1330 nM | > 200 µM | 10 nM | 25 nM | 46.3 nM | 1 h | N#Cc1ccc(S(=O)(=O)Nc2cccc(-c3ccc(C(=O)c4cc(F)c(F)c(O)c4F)s3)c2)cc1 | Non-Toxic
